These results are taken from PubChem BioAssay (NCI).

Test in all cases: NCI tumour cell line growth inhibition, 48 h
The subject of test [1] is A549 NSCLC.
The subject of test [2] is HCC-2998 colon.
For test [3], the system named is HOP-62 NSCLC.
In test [4] the test system is MDA-MB-231 breast.
Test [5] has as its system MOLT-4 leukemia.
For test [6], the system named is OVCAR-8 ovarian.
In test [7] the test system is PC-3 prostate.
The subject of test [8] is SF-295 CNS.
Test [9] relates to SNB-19 CNS.
Test [10] concerns U251 CNS.

Each structure is given as a SMILES string.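 A five-concentration, 48-hour dose response in 96-well plates underlies each endpoint, interpolated linearly between surrounding concentrations. Here, GI50 denotes the concentration required for 50% inhibition of growth. TGI: concentration producing complete growth inhibition.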 Where only a bound is given, the exact number is not on record here.

As for `Nc1nc(Cl)c(C=O)c(NCC2(CO)CC(CCc3ccccc3)C2)n1` (stereo not given), the TGI was 25.5 µM in test [1]; 4.94 µM in [2]; 28.6 µM in [3]; 23.7 µM in test [4]; 9.01 µM in test [5]; 6.03 µM in test [6]. For the same compound, the TGI was determined as 16.3 µM in test [7], 27 µM in test [8], 27.9 µM in test [9] and 26.6 µM in test [10].

Consider `Cc1cccc(/C=N/NC(=S)NCc2ccccn2)n1`, for which the TGI was more than 100 µM in test [1]; more than 100 µM in [2]; more than 78.6 µM in test [3]; more than 100 µM in test [4]; more than 100 µM in test [5]; more than 100 µM in [6]. Besides, the TGI in test [7], in [8], in test [9] and in test [10] was more than 100 µM throughout.

For `COC(=O)C1Cc2ccc(C)cc2C1=O` (stereo not given), the TGI in test [1], in test [2], in test [3], in [4], in test [5] and in test [6] was more than 100 µM in each case. Besides, the TGI in test [7], in [8], in test [9] and in test [10] was more than 100 µM each time.

As for `COc1ccc(NC(=O)CC(=O)n2nc(C)c(N=Nc3ccc(C)c(C)c3)c2C)cc1`, the TGI in test [1], in [2], in test [3], in test [4], in [5] and in [6] was more than 100 µM in each case. Besides, the TGI in test [7], in test [8], in test [9] and in [10] was more than 100 µM throughout.

Regarding `O=C(O)C(Cc1ccc2c(c1)CCC2)(Cc1ccc2c(c1)CCC2)C(=O)O`, the TGI in test [1], in test [2], in test [3], in test [4], in [5] and in test [6] was more than 100 µM each time. For the same compound, the TGI in test [7], in test [8], in test [9] and in test [10] was more than 100 µM in each case.

With `OC1c2ccccc2[C@@H]2[C@H]1[C@@H](c1ccccc1)C1(Cc3ccccc3C1O)[C@H]2c1ccccc1` (stereo not given in full), the TGI in [1] worked out at 14.2 µM; in test [2], 4.58 µM; in test [3] it was 22.9 µM; in [4], 20.3 µM; in test [5], 8.57 µM; in [6], 15.3 µM. Besides, the TGI in test [7] stood at 8.87 µM; in [8], 18.9 µM; in [9] it was 26.5 µM; in test [10] it was 14.1 µM.

With `COc1ccc(/C=C2\CN(C(=O)CCN3CCC(=NO)CC3)C/C(=C\c3ccc(OC)cc3)C2=O)cc1`, the GI50 in [1] was 3.28 µM; in [2], 1.85 µM; in test [3] it was 2.03 µM; in test [4], 2.11 µM; in test [5], 2.95 µM; in test [6] it was 3.22 µM. For the same compound, the GI50 in test [7] was 2 µM; in [8], 2.77 µM; in test [9], 2.58 µM; in test [10], 1.74 µM. For the same compound, the TGI in test [1] came to 11.7 µM; in test [2], 3.51 µM; in test [3], 4.59 µM; in [4], 4.55 µM; in [5] it was 26.9 µM; in test [6] it was 16 µM. For the same compound, the TGI is 4.74 µM in test [7], 7.69 µM in [8], 7.55 µM in test [9] and 3.47 µM in test [10].

With `COC(=O)C1Cc2c([nH]c3ccccc23)C(c2cccc(O)c2)N1` (stereo not given), the TGI in test [1] is more than 100 µM; in test [2], 48.3 µM; in test [3], more than 100 µM; in test [4], 51.2 µM; in [5] it was more than 100 µM; in test [6] it was more than 100 µM. Also, the TGI in test [7] is 80.3 µM; in test [8], more than 100 µM; in [9] it was more than 100 µM; in test [10] it was more than 100 µM.

Take `CC(=O)Oc1ccc(N2C(=O)C3c4[nH]c5ccccc5c4C4CCC(C(C)(C)C)CC4C3C2=O)cc1` (stereo not given): the TGI was determined as 10.7 µM in test [1]; 5.14 µM in test [2]; 13.5 µM in test [3]; 4.63 µM in test [4]; 94.2 µM in [5]; 13.5 µM in test [6]. The TGI in [7] amounted to 10.4 µM; in test [8] it was 14.8 µM; in test [9] it was 9.84 µM; in test [10], 11.1 µM.

Take `CCCCOC(=O)C(=O)C(CC(C(=O)Cc1ccccc1)c1ccccc1)C(=O)C=C(C)C` (stereo not given): the TGI in test [1], in test [2], in [3], in test [4], in test [5] and in [6] was more than 100 µM each time. Further, the TGI in [7], in test [8], in test [9] and in test [10] was more than 100 µM each time.

Regarding `COc1cc2c(cc1OC)C1Cc3ccccc3CCN1CC2` (stereo not given), the TGI in [1], in [2], in test [3], in test [4], in test [5] and in test [6] was more than 100 µM in each case. Besides, the TGI in test [7], in test [8], in test [9] and in test [10] was more than 100 µM in each case.

Regarding `CC(C)Nc1[nH]c(C(=O)c2ccccc2)c(N)c1C(=S)Nc1ccccc1`, the TGI in test [1] is more than 100 µM; in test [2], 46.2 µM; in test [3] it was more than 100 µM; in [4], more than 100 µM; in [5], more than 100 µM; in [6] it was more than 100 µM. Also, the TGI in test [7], in test [8], in test [9] and in [10] was more than 100 µM throughout.
